In brackets after ≈: the same amount, converted by molar mass. Where a name gives a salt, the structure may show the parent alone.
Columns and labels:
Format in all cases: cell-based
[1] = tested on: B. subtilis; experiment: MIC, serial dilution in nutrient agar with 5% horse blood (Table 1); settings: Bacillus subtilis, inoculum 0.001 ml undiluted broth culture
Procedure: (§1) | *Serial dilution in nutrient agar containing 5% horse blood, inoculum | 0.001 ml undiluted broth culture.

[2] = tested on: E. cloacae Nl; experiment: as above; settings: Enterobacter cloacae, inoculum 0.001 ml undiluted broth culture
Procedure: as §1

[3] = tested on: E. coli JT 4; experiment: as above; settings: Escherichia coli, JT4, inoculum 0.001 ml undiluted broth culture
Procedure: as §1

[4] = tested on: K. aerogenes A; experiment: as above; settings: Klebsiella aerogenes, inoculum 0.001 ml undiluted broth culture
Procedure: as §1

[5] = tested on: P. mirabilis C 977; experiment: as above; settings: Proteus mirabilis, C977, inoculum 0.001 ml undiluted broth culture
Procedure: as §1

[6] = tested on: P. morganii; experiment: as above; settings: Morganella morganii, inoculum 0.001 ml undiluted broth culture
Procedure: as §1

[7] = tested on: P. rettgeri; experiment: as above; settings: Providencia rettgeri, inoculum 0.001 ml undiluted broth culture
Procedure: as §1

[8] = tested on: S. aureus 1517; experiment: as above; settings: Staphylococcus aureus, inoculum 0.001 ml undiluted broth culture
Procedure: as §1

[9] = tested on: S. aureus Oxford; experiment: as above; settings: Staphylococcus aureus, inoculum 0.001 ml undiluted broth culture
Procedure: as §1

[10] = tested on: S. aureus Russell; experiment: as above; settings: Staphylococcus aureus, inoculum 0.001 ml undiluted broth culture
Procedure: as §1

[11] = tested on: S. faecalis 1; experiment: as above; settings: Enterococcus faecalis, inoculum 0.001 ml undiluted broth culture
Procedure: as §1

[12] = tested on: B. subtilis; experiment: MIC, serial dilution in DST agar with 10% horse blood (Table 2); settings: Bacillus subtilis, inoculum diluted 10^-2
Text: (§2) *Serial dilution in DST agar containing 10% horse blood, inoculum 0.001 m
(§3) broth culture diluted 10^-2 for Grampositive and 10^-4 for
(§4) Gramnegative organisms.

[13] = tested on: E. cloacae Nl; experiment: as above; settings: Enterobacter cloacae, inoculum diluted 10^-4
Text: as §2, §3, §4

[14] = tested on: E. coli 0111; experiment: as above; settings: Escherichia coli, inoculum diluted 10^-4
Text: as §2, §3, §4

[15] = tested on: K. aerogenes A; experiment: as above; settings: Klebsiella aerogenes, inoculum diluted 10^-4
Text: as §2, §3, §4

[16] = tested on: P. mirabilis C 977; experiment: as above; settings: Proteus mirabilis, C977, inoculum diluted 10^-4
Text: as §2, §3, §4

[17] = tested on: P. morganii 1580; experiment: as above; settings: Morganella morganii, inoculum diluted 10^-4
Text: as §2, §3, §4

[18] = tested on: P. rettgeri WM 16; experiment: as above; settings: Providencia rettgeri, WM16, inoculum diluted 10^-4
Text: as §2, §3, §4

[19] = tested on: S. aureues Russell; experiment: as above; settings: Staphylococcus aureus, inoculum diluted 10^-2
Text: as §2, §3, §4

[20] = tested on: S. aureus 1517; experiment: as above; settings: Staphylococcus aureus, inoculum diluted 10^-2
Text: as §2, §3, §4

[21] = tested on: S. aureus Oxford; experiment: as above; settings: Staphylococcus aureus, inoculum diluted 10^-2
Text: as §2, §3, §4

[22] = tested on: S. faecalis 1; experiment: as above; settings: Enterococcus faecalis, inoculum diluted 10^-2
Text: as §2, §3, §4

[23] = tested on: S. pneumoniae CN 33; experiment: as above; settings: Streptococcus pneumoniae, CN33, inoculum diluted 10^-2
Text: as §2, §3, §4

[24] = tested on: S. pyogenes CN 10; experiment: as above; settings: Streptococcus pyogenes, CN10, inoculum diluted 10^-2
Text: as §2, §3, §4

[25] = tested on: S. pyogenes CN 10; experiment: MIC, serial dilution in nutrient agar with 5% horse blood (Table 1); settings: Streptococcus pyogenes, CN10, inoculum 0.001 ml undiluted broth culture
Procedure: as §1

SMILES	MIC [1]	MIC [3]	MIC [4]	MIC [5]	MIC [6]	MIC [7]	MIC [8]	MIC [9]	MIC [10]	MIC [11]	MIC [12]	MIC [13]	MIC [14]	MIC [15]	MIC [16]	MIC [17]	MIC [18]	MIC [19]	MIC [20]	MIC [22]	also measured
CC1=C(C(=O)O)N2C(=O)[C@@H](NC(=O)C(C(=O)Oc3ccccc3)c3ccccc3)[C@H]2n2nncc21 (stereo partly drawn) [Compound 44, (3aR,4S) 4,5-Dihydro-5-oxo-8-methyl-4-DL (α-phenoxycarbonylphenyl-acetamido)-3aH-azeto[1,2-a]v-triazolo[3,4-c]pyrimidine-7-carboxylic acid]	25 µg/mL (≈ 52.8 µM)	> 100 µg/mL	50 µg/mL (≈ 106 µM)	50 µg/mL (≈ 106 µM)	> 100 µg/mL	> 50 µg/mL	> 100 µg/mL	50 µg/mL (≈ 106 µM)	100 µg/mL (≈ 211 µM)	> 100 µg/mL	25 µg/mL (≈ 52.8 µM)	50 µg/mL (≈ 106 µM)	10 µg/mL (≈ 21.1 µM)	10 µg/mL (≈ 21.1 µM)	10 µg/mL (≈ 21.1 µM)	10 µg/mL (≈ 21.1 µM)	10 µg/mL (≈ 21.1 µM)	25 µg/mL (≈ 52.8 µM)	100 µg/mL (≈ 211 µM)	> 100 µg/mL	MIC [2]: > 100 µg/mL; MIC [21]: 25 µg/mL (≈ 52.8 µM); MIC [23]: 10 µg/mL (≈ 21.1 µM); MIC [24]: 10 µg/mL (≈ 21.1 µM)
Cc1nnc(SCC2=C(C(=O)O)N3C(=O)[C@@H](NC(=O)Cc4cccs4)[C@H]3n3nncc32)s1 [Compound 60, (3aR,4S) 4,5-Dihydro-5-oxo-8-[5-methyl(1,3,4-thiadiazol-2-yl)thiomethyl]-4-(2-thienylacetamido)-3aH-azeto[1,2-a]-v-triazolo[3,4-c]pyrimidine-7-carboxylic acid]	50 µg/mL (≈ 102 µM)	> 100 µg/mL	> 100 µg/mL	> 100 µg/mL	> 100 µg/mL	> 100 µg/mL	> 100 µg/mL	> 100 µg/mL	> 100 µg/mL	> 100 µg/mL	5 µg/mL (≈ 10.2 µM)	> 100 µg/mL	> 100 µg/mL	> 100 µg/mL	> 100 µg/mL	> 100 µg/mL	> 100 µg/mL	25 µg/mL (≈ 51.1 µM)	100 µg/mL (≈ 204 µM)	25 µg/mL (≈ 51.1 µM)	MIC [2]: > 100 µg/mL; MIC [25]: > 100 µg/mL; MIC [23]: 0.5 µg/mL (≈ 1.02 µM); MIC [24]: 2.5 µg/mL (≈ 5.11 µM)
CC1=C(C(=O)O)N2C(=O)[C@@H](NC(=O)CC#N)[C@H]2n2nncc21 [Compound 49, (3aR,4S)-4,5-Dihydro-5-oxo-8-methyl-4-cyanoacetamido 3aH-azeto[1,2a]v-triazolo[3,4-c]pyrimidine-7-carboxylic acid]	–	–	–	–	–	–	–	–	–	–	2.5 µg/mL (≈ 8.27 µM)	> 100 µg/mL	100 µg/mL (≈ 331 µM)	100 µg/mL (≈ 331 µM)	50 µg/mL (≈ 165 µM)	100 µg/mL (≈ 331 µM)	> 100 µg/mL	25 µg/mL (≈ 82.7 µM)	100 µg/mL (≈ 331 µM)	25 µg/mL (≈ 82.7 µM)	MIC [21]: 5 µg/mL (≈ 16.5 µM); MIC [23]: 5 µg/mL (≈ 16.5 µM); MIC [24]: 2.5 µg/mL (≈ 8.27 µM)
CC1=C(C(=O)O)N2C(=O)[C@@H](NC(=O)[C@H](O)c3ccccc3)[C@H]2n2nncc21 [Compound 42, (3aR,4S) 4,5-Dihydro-5-oxo-8-methyl-4-D-mandelylamino-3aH-azeto[1,2-a]v-triazolo[3,4-c]pyrimidine-7-carboxylic acid]	1 µg/mL (≈ 2.71 µM)	> 100 µg/mL	> 100 µg/mL	> 100 µg/mL	100 µg/mL (≈ 271 µM)	> 100 µg/mL	> 100 µg/mL	25 µg/mL (≈ 67.7 µM)	> 100 µg/mL	> 100 µg/mL	–	–	–	–	–	–	–	–	–	–	MIC [2]: > 100 µg/mL
CC1=C(C(=O)O)N2C(=O)[C@@H](NC(=O)Cc3cccs3)[C@H]2n2nncc21 [Compound 43, (3aR,4S) 4,5-Dihydro-5-oxo-8-methyl-4-(2-thienylacetamido)-3aH-azeto[1,2-a]y-triazolo[3,4-c]pyrimidine-7-carboxylic acid]	< 0.2 µg/mL	> 100 µg/mL	50 µg/mL (≈ 139 µM)	10 µg/mL (≈ 27.8 µM)	> 100 µg/mL	> 100 µg/mL	2.5 µg/mL (≈ 6.96 µM)	1 µg/mL (≈ 2.78 µM)	2.5 µg/mL (≈ 6.96 µM)	2.5 µg/mL (≈ 6.96 µM)	≤ 0.2 µg/mL	> 100 µg/mL	10 µg/mL (≈ 27.8 µM)	2.5 µg/mL (≈ 6.96 µM)	2.5 µg/mL (≈ 6.96 µM)	2.5 µg/mL (≈ 6.96 µM)	> 100 µg/mL	1 µg/mL (≈ 2.78 µM)	5 µg/mL (≈ 13.9 µM)	5 µg/mL (≈ 13.9 µM)	MIC [25]: < 0.2 µg/mL; MIC [21]: 2.5 µg/mL (≈ 6.96 µM); MIC [23]: ≤ 0.2 µg/mL; MIC [24]: ≤ 0.2 µg/mL
CC1=C(C(=O)O)N2C(=O)[C@@H](NC(=O)[C@H](N)c3ccccc3)[C@H]2n2nncc21 [Compound 46, (3aR,4S)-4,5-Dihydro-5-oxo-8-methyl-4-D-α-phenylglycylamino-3aH-azeto[1,2-a]v-triazolo[3,4-c]pyrimidine-7-carboxylic acid trifluoroacetic acid salt]	100 µg/mL	> 100 µg/mL	> 100 µg/mL	> 100 µg/mL	> 100 µg/mL	> 100 µg/mL	> 100 µg/mL	> 100 µg/mL	> 100 µg/mL	> 100 µg/mL	–	–	–	–	–	–	–	–	–	–	MIC [2]: > 100 µg/mL
CCSCC(=O)NC1C(=O)N2C(C(=O)O)=C(C)c3cnnn3C12 [Compound 48, (3aR,4S)-4,5-Dihydro-5-oxo-8-methyl-4-ethylthioacetamido 3aH-azeto[1,2a]v-triazolo[3,4c]pyrimidine-7-carboxylic acid]	–	–	–	–	–	–	–	–	–	–	0.2 µg/mL (≈ 0.593 µM)	> 100 µg/mL	50 µg/mL (≈ 148 µM)	50 µg/mL (≈ 148 µM)	10 µg/mL (≈ 29.6 µM)	25 µg/mL (≈ 74.1 µM)	> 100 µg/mL	5 µg/mL (≈ 14.8 µM)	25 µg/mL (≈ 74.1 µM)	25 µg/mL (≈ 74.1 µM)	MIC [23]: 1 µg/mL (≈ 2.96 µM); MIC [24]: 0.5 µg/mL (≈ 1.48 µM)
CC1=C(C(=O)O)N2C(=O)[C@@H](NC(=O)C(F)(F)F)[C@H]2n2nncc21 [Compound 51, (3aR,4S)-4,5-Dihydro-5-oxo-8-methyl-4-trifluoroacetamido 3aH-azeto[1,2-a]v-triazolo[3,4-c]pyrimidine-7-carboxylic acid]	–	–	–	–	–	–	–	–	–	–	5 µg/mL (≈ 15.1 µM)	> 100 µg/mL	100 µg/mL (≈ 302 µM)	> 100 µg/mL	> 100 µg/mL	> 100 µg/mL	> 100 µg/mL	> 100 µg/mL	> 100 µg/mL	100 µg/mL (≈ 302 µM)	MIC [21]: > 100 µg/mL; MIC [23]: 50 µg/mL (≈ 151 µM); MIC [24]: 25 µg/mL (≈ 75.5 µM)
CC(=O)OCC1=C(C(=O)O)N2C(=O)[C@@H](NC(=O)Cc3cccs3)[C@H]2n2nncc21 [Compound 57, (3aR,4S) 4,5-Dihydro-5-oxo-8-acetoxymethyl-4-(2-thienylacetamido)-3aH-azeto[1,2-a]v-triazolo[3,4-c]pyrimidine-7-carboxylic acid]	100 µg/mL (≈ 240 µM)	> 100 µg/mL	> 100 µg/mL	> 100 µg/mL	> 100 µg/mL	> 100 µg/mL	> 100 µg/mL	> 100 µg/mL	> 100 µg/mL	> 100 µg/mL	–	–	–	–	–	–	–	–	–	–	MIC [2]: > 100 µg/mL; MIC [25]: > 100 µg/mL
CC1=C(C(=O)O)N2C(=O)[C@@H](NC(=O)Cn3ncnn3)[C@H]2n2nncc21 [Compound 47, (3aR,4S)-4,5-Dihydro-5-oxo-8-methyl-4-(2-tetrazolylacetamido)-3aH-azeto[1,2-a]v-triazolo[3,4-c]pyrimidine-7-carboxylic acid]	0.5 µg/mL (≈ 1.45 µM)	> 100 µg/mL	> 100 µg/mL	> 100 µg/mL	> 100 µg/mL	> 100 µg/mL	> 100 µg/mL	2.5 µg/mL (≈ 7.24 µM)	5 µg/mL (≈ 14.5 µM)	50 µg/mL (≈ 145 µM)	–	–	–	–	–	–	–	–	–	–	MIC [2]: > 100 µg/mL; MIC [25]: 1 µg/mL (≈ 2.9 µM)
CO/N=C(\C(=O)N[C@@H]1C(=O)N2C(C(=O)O)=C(C)c3cnnn3[C@H]12)c1ccco1 [Compound 50, (3aR,4R)-4,5-Dihydro-5-oxo-8-methyl-4-[(2-methoxyimino-2-fur-2'-yl)acetamido]-3aH-azeto[1,2-a]v-triazolo[3,4-c]pyrimidine-7-carboxylic acid]	–	–	–	–	–	–	–	–	–	–	5 µg/mL (≈ 12.9 µM)	> 100 µg/mL	100 µg/mL (≈ 259 µM)	100 µg/mL (≈ 259 µM)	50 µg/mL (≈ 129 µM)	100 µg/mL (≈ 259 µM)	> 100 µg/mL	25 µg/mL (≈ 64.7 µM)	100 µg/mL (≈ 259 µM)	> 100 µg/mL	MIC [23]: 10 µg/mL (≈ 25.9 µM); MIC [24]: 1 µg/mL (≈ 2.59 µM)
